Read-outs that look alike come from different tables or passages of the source. One block for each compound: values may come before it. Where a SMILES comes first, the peptide text is derived from it. Where no end group is shown, it is not given here. [ ]: non-standard residue; d: D form. dOrn = NCCC[C@@H](N)C(=O)O; Orn = NCCC[C@H](N)C(=O)O
Tests used:
IL-1R/IL-1RacP = biological target: T1, IL-1R/IL-1RacP (Homo sapiens, UniProt P14778+Q9NPH3); test: IL-1β-induced proliferation in TF-1 cells; assay type: cell-based; settings: for activity relative to 101.113: Table 11
T1 construct: TF-1 cells; endogenous in cells; host or cells: TF-1
T1 sequence (P14778 18-569): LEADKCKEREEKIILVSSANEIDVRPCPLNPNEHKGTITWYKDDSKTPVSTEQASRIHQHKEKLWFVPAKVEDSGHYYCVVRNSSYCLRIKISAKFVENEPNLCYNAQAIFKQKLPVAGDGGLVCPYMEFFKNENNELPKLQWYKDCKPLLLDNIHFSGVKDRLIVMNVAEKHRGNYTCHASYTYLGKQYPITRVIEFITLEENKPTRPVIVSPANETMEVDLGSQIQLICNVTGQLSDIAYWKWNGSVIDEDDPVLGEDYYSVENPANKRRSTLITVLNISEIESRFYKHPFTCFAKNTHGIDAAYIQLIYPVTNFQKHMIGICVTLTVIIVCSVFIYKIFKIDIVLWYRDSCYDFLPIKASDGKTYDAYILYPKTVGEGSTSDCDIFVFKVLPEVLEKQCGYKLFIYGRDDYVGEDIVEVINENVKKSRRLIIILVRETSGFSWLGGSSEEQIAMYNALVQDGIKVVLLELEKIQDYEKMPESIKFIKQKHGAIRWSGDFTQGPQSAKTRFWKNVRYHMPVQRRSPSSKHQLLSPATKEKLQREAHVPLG
T1 sequence (Q9NPH3 21-570): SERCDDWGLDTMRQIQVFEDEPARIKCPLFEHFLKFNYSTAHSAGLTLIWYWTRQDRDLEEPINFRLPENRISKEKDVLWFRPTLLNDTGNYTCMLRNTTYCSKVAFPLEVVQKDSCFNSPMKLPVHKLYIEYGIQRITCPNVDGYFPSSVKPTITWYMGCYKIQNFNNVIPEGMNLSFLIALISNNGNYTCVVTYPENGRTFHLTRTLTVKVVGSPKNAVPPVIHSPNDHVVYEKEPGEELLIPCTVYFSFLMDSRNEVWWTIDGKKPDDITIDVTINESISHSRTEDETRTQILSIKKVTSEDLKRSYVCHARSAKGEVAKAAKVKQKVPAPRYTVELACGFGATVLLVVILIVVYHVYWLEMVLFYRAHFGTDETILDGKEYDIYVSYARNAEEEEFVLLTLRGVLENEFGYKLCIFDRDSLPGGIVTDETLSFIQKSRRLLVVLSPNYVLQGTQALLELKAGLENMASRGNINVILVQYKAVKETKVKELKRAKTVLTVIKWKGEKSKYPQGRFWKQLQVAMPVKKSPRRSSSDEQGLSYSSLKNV

[1] = system: TNBS-induced colon inflammation; test: TNBS rat model of inflammatory bowel disease; assay type: in vivo
Protocol: Colon inflammation was induced by intra-rectal/colon administration of the hapten trinitrobenzene sulphonic acid (TNBS) on male Sprague-Dawley rats (175-200 g) (Bouma, Nature Rev, 2003; Morris, Gastroenterology, 1989). Animals were anesthetized with isoflurane and TNBS dissolved in 50% ethanol (vol/vol). 120 mg/ml (TNBS) was administered into the colon (total volume of 0.25 ml per rat) using a polyethylene tube (PE50). The cannula was inserted at 8 cm from the anus and kept in place for at least 15 minutes after TNBS administration in order to prevent expulsion of the solution. Two hours prior to TNBS administration, the API-101 derivative API-101.10 (1.1 mg/kg) or 0.9% saline was administered intravenously via the caudal vein (total volume of 0.3 ml). […] A third group (control) was not injected with TNBS. Six days after administration of TNBS, rats were killed by CO2 inhalation. Day 6 was chosen as an endpoint because by day 7 spontaneous tissue regeneration begins and this can mask the therapeutic effect of the tested peptide or peptide derivative. Colon was removed and examined macroscopically (adhesions, ulcerations, discoloration and bleeding) and histologically (neutrophil infiltration, epithelial injury, crypt distortion and ulcerations) (Anthony et al., Int. J. Exp. Path. 76:215-224, 1995; Padol et al., Eur. J. of Gastroenterol. Hepatol. 12:257-265, 2000; Dieleman et al., […], 1997; Torres et al., Digestive Diseases and Sciences 44:2523-2529, 1999). Two animals per group were studied.
Histological transversal sections were cut at 4-6 cm from the proximal anal region and colored with the hematoxylin/eosin method. The TNBS model of inflammatory bowel disease reproduces the inflammatory characteristics and tissue injuries of Crohn's disease (e.g., in humans). Morphologically, the colon of the animals injected with TNBS presented thickening, edema, and discoloration of the intestinal wall indicating a significant inflammation. […] Histological features consisted of neutrophil infiltration into the epithelial layer and crypts, epithelial lining injury as well as the loss of crypts. […] The organization and integrity of the crypts in the API-101.10-treated colon is conserved even if there is still some inflammation (half the dose of API-101.10 was used as compared to the macroscopic analysis experiment).
Colon inflammation was induced by intra-rectal/colon administration of the hapten trinitrobenzene sulphonic acid (TNBS) as described above. Two hours prior to TNBS administration, peptides, peptidomimetics or 0.9% saline were administered intravenously (iv) via the caudal vein (various concentrations of mg/kg/d) (total volume of 0.3 ml). […] A third group (control) was not injected with TNBS. For intermittent administration, fifteen minutes after TNBS administration, 101.10 (0.25-1 mg/kg), 101.107 (0.2 mg/kg), 101.113 (0.05-1 mg/kg) were administered by intermittent intraperitoneal injection (ip). Also, these IL-1R antagonists were given twice a day (BID); Remicade® (anti-TNFα) (10 mg/kg) and dexamethasone (0.75 mg/kg) were administered intraperitoneally but only once a day (qd). The intrarectal administration (ir) of 101.10, 101.113 (1 and 2.5 mg/kg), and 5-ASA (50 mg/kg) was done one hour after TNBS administration, and twice a day, except for 5-ASA which is once a day. Finally, 101.10 (1-5 mg/kg) was also administered orally by gavage (po), twice a day. Forty-eight hours after administration of TNBS, rats were killed by CO2 inhalation. The colon was removed and assessed macroscopically (adhesions, ulcerations, discoloration and bleeding) and histologically (neutrophil infiltration, epithelial injury, crypt distortion and ulcerations). One to seven animals per group were studied, according to treatments. Myeloperoxidase (MPO) activity was measured on tissue lysates.

IGF-1R = IGF-1R (Homo sapiens, UniProt P08069); test: IGF-1 induced proliferation of MCF-7 breast carcinoma cells (3H-thymidine); assay type: cell-based; set-up: MCF-7 breast carcinoma cells; endogenous in cells; host or cells: MCF-7; settings: MCF7; MCF-7 (breast cancer) cells; Table 5; read-out: Emax
Protocol: We also tested the effect IGF-1R antagonist peptides on IGF-1 induced proliferation in other cancer cell types (MCF-7 breast carcinoma cells, HepG2 hepatocarcinoma cells, and MDA-MB-231 breast adenocarcinoma cells). Different cancer cells were pre-incubated (45 min.) with different concentrations of peptides prior to stimulation with IGF-1 (50 ng/ml) (37° C.) for 24 hours; fetal calf serum was omitted 24 hours prior to stimulation with IGF-1 to avoid proliferative effects by other mitotic agents. ^3H-thymidine (1 μCi/ml) was then added for 24 hours, after which cells were washed three times with 5% cold TCA and lysed with 0.1N NaOH/0.1% Triton X-100. Radioactivity was measured with a scintillation counter. Experiments were repeated 3 times in duplicates (FIG. 15). […]

[2] = TF-1, IL-1β-induced, Table 10, read-out: Emax (%), proliferation in TF-1 cells (human)
[3] = TF-1, Table 11, read-out: Emax (%), IL-1β-induced TF-1 proliferation
[4] = intermittent injection (ip), 0.75-qd mg/kg/d
[5] = intrarectal administration, 50.0-qd mg/kg/d
[6] = continuous infusion (ip), 8.0 mg/kg/d
[7] = intermittent injection (ip), 10.0-qd mg/kg/d

Sequence of IGF-1R (P08069 31-736 limits assumed): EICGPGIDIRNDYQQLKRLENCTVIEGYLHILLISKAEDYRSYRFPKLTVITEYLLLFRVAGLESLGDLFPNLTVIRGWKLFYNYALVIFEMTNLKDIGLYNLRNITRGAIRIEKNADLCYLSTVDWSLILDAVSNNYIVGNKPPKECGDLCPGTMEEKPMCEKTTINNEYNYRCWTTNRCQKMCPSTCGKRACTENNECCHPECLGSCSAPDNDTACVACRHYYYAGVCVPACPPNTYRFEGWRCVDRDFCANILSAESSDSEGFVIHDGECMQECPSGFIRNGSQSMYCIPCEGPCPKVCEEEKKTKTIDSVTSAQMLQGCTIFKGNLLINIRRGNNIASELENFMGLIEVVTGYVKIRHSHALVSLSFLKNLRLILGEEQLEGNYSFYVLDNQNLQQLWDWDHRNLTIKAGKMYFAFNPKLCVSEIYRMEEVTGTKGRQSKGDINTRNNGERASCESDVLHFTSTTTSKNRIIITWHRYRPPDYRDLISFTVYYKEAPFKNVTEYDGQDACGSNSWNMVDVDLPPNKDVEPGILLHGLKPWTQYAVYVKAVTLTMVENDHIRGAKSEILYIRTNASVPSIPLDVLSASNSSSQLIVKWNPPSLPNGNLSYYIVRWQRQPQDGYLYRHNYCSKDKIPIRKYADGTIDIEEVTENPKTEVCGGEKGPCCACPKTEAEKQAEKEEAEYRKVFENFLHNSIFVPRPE
Sequence of IGF-1R (P08069 741-1367 limits assumed): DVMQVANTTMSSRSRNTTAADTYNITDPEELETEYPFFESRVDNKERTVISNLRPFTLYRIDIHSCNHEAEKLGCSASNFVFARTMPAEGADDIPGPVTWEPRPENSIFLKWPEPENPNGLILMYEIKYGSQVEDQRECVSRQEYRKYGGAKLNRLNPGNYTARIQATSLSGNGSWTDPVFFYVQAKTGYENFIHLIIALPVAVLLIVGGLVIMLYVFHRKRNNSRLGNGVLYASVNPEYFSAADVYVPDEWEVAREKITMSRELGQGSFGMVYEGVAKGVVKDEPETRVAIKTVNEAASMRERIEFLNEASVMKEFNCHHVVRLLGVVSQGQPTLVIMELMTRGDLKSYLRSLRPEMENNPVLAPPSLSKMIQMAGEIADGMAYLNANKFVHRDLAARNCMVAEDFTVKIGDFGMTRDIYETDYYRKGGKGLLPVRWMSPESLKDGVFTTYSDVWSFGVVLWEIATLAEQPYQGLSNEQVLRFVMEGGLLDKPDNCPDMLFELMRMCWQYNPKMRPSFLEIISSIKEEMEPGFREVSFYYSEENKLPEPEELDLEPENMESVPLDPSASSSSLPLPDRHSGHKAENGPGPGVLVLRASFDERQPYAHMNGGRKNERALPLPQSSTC

Compound: CC(C)C[C@@H](NC(=O)[C@@H](CCC(=O)O)NC(=O)[C@H]1CCCN1C(=O)[C@H](NC(=O)[C@@H](Cc1ccc(O)cc1)NC(=O)[C@H](N)CCCNC(=N)N)[C@H](C)O)C(=O)O [API-101.113, RYTPEL]
Emax (IL-1R/IL-1RacP; [2]): 100%

Compound: CC(C)C[C@@H](NC(=O)[C@@H](CCC(=O)O)NC(=O)[C@H]1CCCN1C(=O)[C@H](NC(=O)[C@@H](Cc1ccc(O)cc1)NC(=O)[C@H](N)CCCN)[C@H](C)O)C(=O)N[C@H](C)C(=O)O [API-101.115, XYTPELA (X = Ornithine)] (H-[dOrn][dY][dT][dP][dE][dL][dA]-OH)
Emax (IL-1R/IL-1RacP; [2]): 100%

Compound: CC(C)C[C@@H](NC(=O)[C@@H](CCC(=O)O)NC(=O)[C@H]1CCCN1C(=O)[C@H](NC(=O)[C@@H](Cc1c[nH]c2ccccc12)NC(=O)[C@H](N)CCCNC(=N)N)[C@H](C)O)C(=O)N[C@H](C)C(=O)O [API-101.116, RWTPELA]
Emax (IL-1R/IL-1RacP; [2]): 75%

Compound: CC(C)C[C@H](NC(=O)[C@H](CCC(=O)O)NC(=O)[C@@H]1CCCN1C(=O)[C@@H](NC(=O)[C@H](Cc1ccc(O)cc1)NC(=O)[C@@H](N)CCCN)[C@@H](C)O)C(=O)O [API-101.126, XYTPEL (X = Ornithine)] (H-[Orn]YTPEL-OH)
Emax (IL-1R/IL-1RacP; [3]): 0%

Compound: C[C@@H]1C[C@H]2[C@@H]3CCC4=CC(=O)C=C[C@]4(C)[C@@]3(F)[C@@H](O)C[C@]2(C)[C@@]1(O)C(=O)CO [Dexamethasone, dexamethasone, reference compound]
Histologic evaluation (median score) [1, 4]: 3 (Medium ulcer (5-10 crypts))
MPO (% of TNBS + Saline) [1, 4]: 60 % of TNBS + Saline
Macroscopic evaluation (median score) [1, 4]: 0.87 median score

Compound: Nc1ccc(O)c(C(=O)O)c1 [Peptide 5-ASA, 5-ASA, reference compound]
Histologic evaluation (median score) [1, 5]: 3.3 median score
MPO (% of TNBS + Saline) [1, 5]: 49 % of TNBS + Saline
Macroscopic evaluation (median score) [1, 5]: 1.5 median score

Compound: Kineret: Amgen drug, a selective blocker of IL-1; commercial analog of IL-1R antagonist (IL-Ra) [reference compound]
Histologic evaluation (median score) [1, 6]: 2 (Small ulcer (<5 crypts))
MPO (% of TNBS + Saline) [1, 6]: 63 % of TNBS + Saline

Compound: RTVLSNL [APG-206.8, RTVLSNL]
Emax (IGF-1R): 100%

Compound: Remicade ®: anti-TNFα [reference compound]
Histologic evaluation (median score) [1, 7]: 2.5 median score
MPO (% of TNBS + Saline) [1, 7]: 88 ± 41 % of TNBS + Saline
Macroscopic evaluation (median score) [1, 7]: 0.5 median score

Now from value to compound:

Emax (IL-1R/IL-1RacP; [3]): 100%
activity relative to 101.113 (IL-1R/IL-1RacP): relatively decreased
Compound: CC(C)C[C@@H](NC(=O)[C@@H](CCC(=O)O)NC(=O)[C@H]1CCCN1C(=O)[C@H](NC(=O)[C@@H](Cc1c[nH]c2ccccc12)NC(=O)[C@H](N)CCCNC(=N)N)[C@H](C)O)C(=O)O [API-101.128, RWTPEL] (H-[dR][dW][dT][dP][dE][dL]-OH; N-terminus and C-terminus assumed)

Emax (IL-1R/IL-1RacP; [3]): 35%
activity relative to 101.113 (IL-1R/IL-1RacP): relatively decreased
Compound: CC(C)C[C@@H](NC(=O)[C@@H](CCC(=O)O)NC(=O)[C@H]1CCCN1C(=O)[C@H](NC(=O)[C@@H](Cc1ccccc1)NC(=O)[C@H](N)CCCNC(=N)N)[C@H](C)O)C(=O)O [API-101.132, RFTPEL] (H-[dR][dF][dT][dP][dE][dL]-OH; N-terminus and C-terminus assumed)

Emax (IL-1R/IL-1RacP; [3]): 10%
activity relative to 101.113 (IL-1R/IL-1RacP): little or no activity
Compound: CC(C)C[C@@H](NC(=O)[C@@H](CCC(=O)O)NC(=O)[C@H]1CCCN1C(=O)[C@H](NC(=O)[C@@H](Cc1ccc(O)cc1)NC(=O)[C@H](N)CCCNC(N)=O)[C@H](C)O)C(=O)O [API-101.134, XYTPEL (X = Citrulline)]

Emax (IL-1R/IL-1RacP; [3]): 63%
Compound: CC(C)C[C@@H](NC(=O)[C@@H](CCC(=O)O)NC(=O)[C@H]1CCCN1C(=O)[C@H](NC(=O)[C@@H](Cc1ccc(O)cc1)NC(=O)[C@@H](N)CCCNC(=N)N)[C@H](C)O)C(=O)O [API-101.135, *RYTPEL]

Emax (IL-1R/IL-1RacP; [3]): < 10%
Compound: KYTPEL [API-101.133, KYTPEL]

Emax (IL-1R/IL-1RacP; [3]): < 30%
Compound: RFVPELA [API-101.127, RFVPELA]

Source: patent publication US20110144014A1, “CYTOKINE RECEPTOR MODULATORS AND USES THEREOF” (CENTRE HOSPITALIER UNIVERSITAIRE SAINTE-JUSTINE, priority 2005, published 2011)
